Results: PMC6412366, “The Limitations of Collagen/CPP Hybrid Peptides as Carriers for Cancer Drugs to FaDu Cells” (Molecules, 2019)

Test system: FaDu cell surface
Assay: Suramin wash (competitive binding) of FL8V1-treated FaDu cells
Assay type: cell-based, human
Settings: concluded from reversed incubation order
Experimental: FaDu cells were seeded into MatTek dishes (No. 1.5 coverglass, 35 mm). After the cells were at least 70% confluent, the media was removed and the cells were gently washed with PBS. […] The cells were washed twice with PBS. Additional EMEM medium was added before the cell cultures were imaged using confocal microscopy (λEX = 488 for FITC tag) using the 60X oil immersion objective.

Cc1ccc(C(=O)Nc2ccc(S(=O)(=O)O)c3cc(S(=O)(=O)O)cc(S(=O)(=O)O)c23)cc1NC(=O)c1cccc(NC(=O)Nc2cccc(C(=O)Nc3cc(C(=O)Nc4ccc(S(=O)(=O)O)c5cc(S(=O)(=O)O)cc(S(=O)(=O)O)c45)ccc3C)c2)c1 [suramin]
binding of suramin to the FaDu cell surface: does not bind
